Reference: publication PMC11031590, “Narazaciclib, a novel multi-kinase inhibitor with potent activity against CSF1R, FLT3 and CDK6, shows strong anti-AML activity in defined preclinical models” (Scientific Reports, 2024)

Tests used:
[1] = test system: Ba/F3-CSF1R cell line; assay: Ba/F3-CSF1R proliferation assay (CTG); type: cell-based, mouse
Protocol: (§1) The recombinant Ba/F3 cell lines overexpressing human CSF1R, or human RBM6-CSF1R, or human ETV6-CSF1R were generated using a retrovirus vector (Kyinno Co., Ltd. Beijing). The recombinant Ba/F3 lines overexpressing human Kras G12C orEGFR-L718Q mutants, and different mutant variants of FLT3 were also similarly created as well. A standard proliferation assay via CTG readout was performed according to the vendor’s instructions (KYinno Biotechnology Co., Ltd. Beijing).

[2] = test system: Ba/F3-FLT3-ITD (D835V); assay: Ba/F3-FLT3-ITD (D835V) proliferation assay; type: cell-based, mouse
Protocol: as §1

[3] = test system: Ba/F3-FLT3-F691L; assay: Ba/F3-FLT3-F691L proliferation assay; type: cell-based, mouse
Protocol: as §1

[4] = test system: CMK-115; assay: AML cell line in vitro proliferation assay; type: cell-based
Protocol: (§2) Narazaciclib was serially diluted with culture medium to 9 final assay concentrations from 0.01 to 100 μM. The assay was performed with both a negative control (vehicle) and a positive control (Cisplatin) in triplicate. The AML cell lines at log-growth phase were cultured in 96-well plates (black transparent flat bottom 96-well plate, Corning, Cat# 3603, FBS, ExCell Bio., Cat# FND500) in the presence of narazaciclib or Cisplatin at various concentrations for 72 h or 120 h (only for AML-193 cell line), followed by CTG readout according to the manufacturer’s instruction (CellTiter-Glo Luminescent Cell Viability Assay, Promega, Cat# G7573). Viability%=Lumdrug-Lummedium control/Lumcell control-Lummedium control×100%. Lumcell control-Lummedium controlas100%,LumMediumcontrolas0%. Proliferationfold increase=D5-LumNone treated-LumMedium control/D2LumNone treated-LumMedium control
(§3) Dose–response curves were fitted by a 4-parameter log-logistic model: Inhibition%=Bottom+Top-Bottom/1+10^logEC50-x∗HillSlope where Top and Bottom are the two asymptotes of the sigmoidal curve, EC50 is the relative IC50, concentration x is in log-10 scale and HillSlope is the slope at the EC50 point on the fitted curve. The fitted area under the curve (AUC) was calculated by: Inhibition%=Bottom+Top-Bottom/1+10^logEC50-x∗HillSlope where a represents the log10-transformed minimal concentration and b represents the log10-transformed maximal concentration. An extremely strong positive correlation between the absolute IC50 and AUC is shown in Supplemental Fig. S5.

[5] = test system: CMK; assay: AML cell line in vitro proliferation assay; type: cell-based
Protocol: as §2, §3

[6] = test system: HEL; assay: AML cell line in vitro proliferation assay; type: cell-based
Protocol: as §2, §3

[7] = test system: HNT34; assay: AML cell line in vitro proliferation assay; type: cell-based
Protocol: as §2, §3

[8] = test system: KASUMI-6; assay: AML cell line in vitro proliferation assay; type: cell-based
Protocol: as §2, §3

[9] = test system: KG-1; assay: AML cell line in vitro proliferation assay; type: cell-based
Protocol: as §2, §3

[10] = test system: M07E; assay: AML cell line in vitro proliferation assay; type: cell-based
Protocol: as §2, §3

[11] = test system: ML2; assay: AML cell line in vitro proliferation assay; type: cell-based
Protocol: as §2, §3

[12] = test system: MOLM-16; assay: AML cell line in vitro proliferation assay; type: cell-based
Protocol: as §2, §3

[13] = test system: MONOMAC-1; assay: AML cell line in vitro proliferation assay; type: cell-based
Protocol: as §2, §3

[14] = test system: MONOMAC-6; assay: AML cell line in vitro proliferation assay; type: cell-based
Protocol: as §2, §3

[15] = test system: MV-4–11; assay: AML cell line in vitro proliferation assay; type: cell-based
Protocol: as §2, §3

[16] = test system: OCI-AML-3; assay: AML cell line in vitro proliferation assay; type: cell-based
Protocol: as §2, §3

[17] = test system: OCI-AML-5; assay: AML cell line in vitro proliferation assay; type: cell-based
Protocol: as §2, §3

[18] = test system: OCI-M1; assay: AML cell line in vitro proliferation assay; type: cell-based
Protocol: as §2, §3

[19] = test system: PL21; assay: AML cell line in vitro proliferation assay; type: cell-based
Protocol: as §2, §3

[20] = test system: PLB-985; assay: AML cell line in vitro proliferation assay; type: cell-based
Protocol: as §2, §3

[21] = test system: SKNO-1; assay: AML cell line in vitro proliferation assay; type: cell-based
Protocol: as §2, §3

[22] = test system: THP-1; assay: AML cell line in vitro proliferation assay; type: cell-based
Protocol: as §2, §3

[23] = test system: UT7; assay: AML cell line in vitro proliferation assay; type: cell-based
Protocol: as §2, §3

[24] = area under the dose–response curve

Q: How did the “times more potent than GW2580” value ([1]; Ba/F3-CSF1R in the presence of CSF1) turn out when `CN1CCN(c2ccc(Nc3ncc4cc(C#N)c(=O)n(C5CCCC5)c4n3)cc2)CC1` [Narazaciclib, narazaciclib] was run?
A: Its value is 16 times.

Q: What about the IC50 ([1]; Mus musculus, + 100 ng/ml CSF-1) of the same compound?
A: The IC50 was ~3.54 nM.

Q: And the “% of Ba/F3-FLT3 (IC50)” value [2]?
A: The value was 9.84%.

Q: And the IC50 ([2]; Mus musculus)?
A: The IC50 was 29.6 nM.

Q: And the “% of Ba/F3-FLT3 (IC50)” value [3]?
A: The value was 44.19%.

Q: And the IC50 ([3]; Mus musculus)?
A: Its IC50 is 133 nM.

Q: And the IC50 ([4]; CMK-11-5, CMK-115, 72 h, CTG)?
A: The IC50 was 5.07 µM.

Q: What about the “Classification by AUC” value ([4]; CMK-115) of the same compound?
A: The value was “Insensitive (AUC ≥ 2.8, insensitive)”.

Q: What about the AUC ([4]; CMK-115, area under the dose–response curve) of the same compound?
A: Its AUC is 2.801.

Q: And the “Classification by AUC” value [5]?
A: The value was “Sensitive (AUC ≤ 2.4, sensitive)”.

Q: What about the IC50 ([5]; Homo sapiens, 72 h, CTG) of the same compound?
A: The IC50 was 1650 nM.

Q: What about the AUC [5, 24] of the same compound?
A: Its AUC is 2.347.

Q: What about the “Classification by AUC” value [6] of the same compound?
A: Its value is “Insensitive (AUC ≥ 2.8, insensitive)”.

Q: What about the IC50 ([6]; Homo sapiens, 72 h, CTG) of the same compound?
A: The IC50 was 15.3 µM.

Q: What about the AUC [6, 24] of the same compound?
A: Its AUC is 3.335.

Q: What about the “Classification by AUC” value ([7]; HNT34) of the same compound?
A: Its value is “Sensitive (AUC ≤ 2.4, sensitive)”.

Q: What about the AUC ([7]; HNT34, area under the dose–response curve) of the same compound?
A: Its AUC is 2.068.

Q: And the IC50 ([7]; HNT-34, HNT34, 72 h, CTG)?
A: The IC50 was 1480 nM.

Q: And the “Classification by AUC” value ([8]; KASUMI-6)?
A: The value was “Sensitive (AUC ≤ 2.4, sensitive)”.

Q: What about the IC50 ([8]; KASUMI-6, 72 h, CTG) of the same compound?
A: Its IC50 is 1480 nM.

Q: What about the AUC ([8]; KASUMI-6, area under the dose–response curve) of the same compound?
A: The AUC was 2.251.

Q: What about the IC50 ([9]; Homo sapiens, KG-1, 72 h, CTG) of the same compound?
A: Its IC50 is 1760 nM.

Q: And the “Classification by AUC” value ([9]; KG-1)?
A: The value was “Intermediate (2.4 < AUC < 2.8, intermediate)”.

Q: And the AUC ([9]; KG-1, area under the dose–response curve)?
A: Its AUC is 2.63.

Q: And the “Classification by AUC” value [10]?
A: Its value is “Intermediate (2.4 < AUC < 2.8, intermediate)”.

Q: What about the IC50 ([10]; M-07e, 72 h, CTG) of the same compound?
A: The IC50 was 4.86 µM.

Q: What about the AUC [10, 24] of the same compound?
A: The AUC was 2.557.

Q: What about the IC50 ([11]; Homo sapiens, ML-2, ML2, 72 h, CTG) of the same compound?
A: Its IC50 is 3.6 µM.

Q: What about the “Classification by AUC” value ([11]; ML2) of the same compound?
A: The value was “Intermediate (2.4 < AUC < 2.8, intermediate)”.

Q: And the AUC ([11]; ML2, area under the dose–response curve)?
A: The AUC was 2.633.

Q: What about the IC50 ([12]; MOLM16, MOLM-16, 72 h, CTG) of the same compound?
A: The IC50 was 4.77 µM.

Q: And the “Classification by AUC” value ([12]; MOLM-16)?
A: The value was “Insensitive (AUC ≥ 2.8, insensitive)”.

Q: And the AUC ([12]; MOLM-16, area under the dose–response curve)?
A: Its AUC is 2.992.

Q: And the “Classification by AUC” value ([13]; MONOMAC-1)?
A: Its value is “Sensitive (AUC ≤ 2.4, sensitive)”.

Q: And the AUC ([13]; MONOMAC-1, area under the dose–response curve)?
A: The AUC was 1.906.

Q: And the IC50 ([13]; Mono-Mac-1, MONOMAC-1, 72 h, CTG)?
A: The IC50 was 297 nM.

Q: And the IC50 ([14]; Homo sapiens, MONO-MAC-6, MONOMAC-6, 72 h, CTG)?
A: The IC50 was 1520 nM.

Q: What about the “Classification by AUC” value ([14]; MONOMAC-6) of the same compound?
A: The value was “Sensitive (AUC ≤ 2.4, sensitive)”.

Q: What about the AUC ([14]; MONOMAC-6, area under the dose–response curve) of the same compound?
A: Its AUC is 2.356.

Q: What about the IC50 ([15]; Homo sapiens, MV4-11, MV-4–11, 72 h, CTG) of the same compound?
A: Its IC50 is 264 nM.

Q: And the “Classification by AUC” value ([15]; MV-4–11)?
A: Its value is “Sensitive (AUC ≤ 2.4, sensitive)”.

Q: And the AUC ([15]; MV-4–11, area under the dose–response curve)?
A: Its AUC is 1.454.

Q: And the IC50 ([16]; Homo sapiens, OCI-AML-3, 72 h, CTG)?
A: The IC50 was 2940 nM.

Q: And the “Classification by AUC” value ([16]; OCI-AML-3)?
A: The value was “Insensitive (AUC ≥ 2.8, insensitive)”.

Q: And the AUC ([16]; OCI-AML-3, area under the dose–response curve)?
A: The AUC was 2.863.

Q: What about the IC50 ([17]; Homo sapiens, OCI-AML-5, 72 h, CTG) of the same compound?
A: The IC50 was 370 nM.

Q: What about the “Classification by AUC” value ([17]; OCI-AML-5) of the same compound?
A: The value was “Sensitive (AUC ≤ 2.4, sensitive)”.

Q: And the AUC ([17]; OCI-AML-5, area under the dose–response curve)?
A: Its AUC is 1.636.

Q: And the “Classification by AUC” value ([18]; OCI-M1)?
A: The value was “Insensitive (AUC ≥ 2.8, insensitive)”.

Q: And the IC50 ([18]; OCI-M1, 72 h, CTG)?
A: Its IC50 is 19.5 µM.

Q: What about the AUC ([18]; OCI-M1, area under the dose–response curve) of the same compound?
A: Its AUC is 3.404.

Q: And the “Classification by AUC” value ([19]; PL21)?
A: The value was “Sensitive (AUC ≤ 2.4, sensitive)”.

Q: What about the AUC ([19]; PL21, area under the dose–response curve) of the same compound?
A: Its AUC is 2.37.

Q: And the IC50 ([19]; PL-21, PL21, 72 h, CTG)?
A: The IC50 was 3.4 µM.

Q: What about the “Classification by AUC” value ([20]; PLB-985) of the same compound?
A: Its value is “Insensitive (AUC ≥ 2.8, insensitive)”.

Q: What about the IC50 ([20]; PLB-985, 72 h, CTG) of the same compound?
A: The IC50 was 14.1 µM.

Q: What about the AUC ([20]; PLB-985, area under the dose–response curve) of the same compound?
A: Its AUC is 2.988.

Q: And the “Classification by AUC” value ([21]; SKNO-1)?
A: Its value is “Sensitive (AUC ≤ 2.4, sensitive)”.

Q: What about the IC50 ([21]; SKNO-1, 72 h, CTG) of the same compound?
A: The IC50 was 234 nM.

Q: And the AUC ([21]; SKNO-1, area under the dose–response curve)?
A: Its AUC is 1.97.

Q: And the IC50 ([22]; Homo sapiens, THP-1, 72 h, CTG)?
A: Its IC50 is > 100 µM.

Q: And the “Classification by AUC” value ([22]; THP-1)?
A: The value was “Insensitive (AUC ≥ 2.8, insensitive)”.

Q: What about the AUC ([22]; THP-1, area under the dose–response curve) of the same compound?
A: Its AUC is 3.445.

Q: And the IC50 ([23]; Homo sapiens, UT7, 72 h, CTG)?
A: The IC50 was 62.4 µM.

Q: And the “Classification by AUC” value ([23]; UT7)?
A: Its value is “Insensitive (AUC ≥ 2.8, insensitive)”.

Q: And the AUC ([23]; UT7, area under the dose–response curve)?
A: Its AUC is 3.469.
